Legend:
[1] = target: T1, Tyrosine-protein kinase Mer (Homo sapiens, UniProt Q12866); test: Inhibition of recombinant Mer (unknown origin) using poly (Glu,Tyr) 4:1 as substrate after 60 mins by ELISA
T1 sequence (Q12866 whole entry): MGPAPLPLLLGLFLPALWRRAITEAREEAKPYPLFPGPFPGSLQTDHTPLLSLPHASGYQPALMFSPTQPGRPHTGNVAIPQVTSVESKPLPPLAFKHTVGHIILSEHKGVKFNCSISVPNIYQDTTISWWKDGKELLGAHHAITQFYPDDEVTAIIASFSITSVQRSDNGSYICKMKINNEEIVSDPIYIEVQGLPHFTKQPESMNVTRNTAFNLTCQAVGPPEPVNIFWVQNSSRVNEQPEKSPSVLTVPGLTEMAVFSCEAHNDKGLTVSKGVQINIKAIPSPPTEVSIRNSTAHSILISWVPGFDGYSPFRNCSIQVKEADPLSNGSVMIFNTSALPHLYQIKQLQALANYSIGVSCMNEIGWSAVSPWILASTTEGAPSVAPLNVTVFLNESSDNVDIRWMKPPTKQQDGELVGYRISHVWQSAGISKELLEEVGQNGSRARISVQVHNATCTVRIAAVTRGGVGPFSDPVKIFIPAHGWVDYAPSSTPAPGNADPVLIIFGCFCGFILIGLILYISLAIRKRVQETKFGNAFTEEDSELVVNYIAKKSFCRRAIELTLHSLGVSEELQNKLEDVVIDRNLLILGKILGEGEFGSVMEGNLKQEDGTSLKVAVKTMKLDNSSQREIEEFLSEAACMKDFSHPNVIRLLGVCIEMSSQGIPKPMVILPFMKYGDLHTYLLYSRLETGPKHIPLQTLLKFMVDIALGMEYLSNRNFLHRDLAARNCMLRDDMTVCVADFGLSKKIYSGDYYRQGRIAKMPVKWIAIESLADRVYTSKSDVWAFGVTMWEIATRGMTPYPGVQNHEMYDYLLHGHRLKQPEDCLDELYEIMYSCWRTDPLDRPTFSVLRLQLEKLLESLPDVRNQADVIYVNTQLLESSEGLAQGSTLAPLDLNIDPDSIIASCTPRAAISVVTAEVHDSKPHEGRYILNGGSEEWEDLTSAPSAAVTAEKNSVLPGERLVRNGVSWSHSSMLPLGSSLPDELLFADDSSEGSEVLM

[2] = target: T2, Tyrosine-protein kinase receptor UFO (Homo sapiens, UniProt P30530); test: Inhibition of recombinant AXL (unknown origin) using poly (Glu,Tyr) 4:1 as substrate after 60 mins by ELISA
T2 sequence (P30530 whole entry): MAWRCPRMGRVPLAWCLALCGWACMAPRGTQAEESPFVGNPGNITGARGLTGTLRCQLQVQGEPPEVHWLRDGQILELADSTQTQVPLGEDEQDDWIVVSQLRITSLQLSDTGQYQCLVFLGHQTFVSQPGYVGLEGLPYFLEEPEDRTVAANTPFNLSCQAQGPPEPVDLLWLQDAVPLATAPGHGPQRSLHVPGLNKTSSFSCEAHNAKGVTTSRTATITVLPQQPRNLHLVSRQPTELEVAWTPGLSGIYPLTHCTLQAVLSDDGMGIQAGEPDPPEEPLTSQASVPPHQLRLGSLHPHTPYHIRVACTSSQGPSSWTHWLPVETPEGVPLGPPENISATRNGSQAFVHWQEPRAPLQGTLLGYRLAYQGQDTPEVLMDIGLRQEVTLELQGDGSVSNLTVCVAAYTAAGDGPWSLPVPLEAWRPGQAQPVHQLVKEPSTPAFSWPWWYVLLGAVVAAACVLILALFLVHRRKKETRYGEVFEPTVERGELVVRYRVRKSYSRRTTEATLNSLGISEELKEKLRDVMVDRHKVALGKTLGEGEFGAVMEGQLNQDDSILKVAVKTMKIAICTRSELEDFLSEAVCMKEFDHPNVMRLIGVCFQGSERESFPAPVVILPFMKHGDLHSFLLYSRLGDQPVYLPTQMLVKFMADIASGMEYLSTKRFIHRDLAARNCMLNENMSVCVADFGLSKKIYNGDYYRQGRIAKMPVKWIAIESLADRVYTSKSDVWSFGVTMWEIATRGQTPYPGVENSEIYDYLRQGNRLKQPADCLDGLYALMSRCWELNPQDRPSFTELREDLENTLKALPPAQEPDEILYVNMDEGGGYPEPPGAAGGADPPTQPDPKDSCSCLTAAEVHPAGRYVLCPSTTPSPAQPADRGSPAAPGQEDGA

[3] = target: Epidermal growth factor receptor (Homo sapiens, UniProt P00533, L858R/T790M); test: Inhibition of recombinant EGFR T790M/L858R mutant (unknown origin) using poly (Glu,Tyr) 4:1 as substrate after 60 mins by ELISA
[4] = target: Receptor tyrosine-protein kinase erbB-2 (Homo sapiens, UniProt P04626); test: Inhibition of recombinant ErbB2 (unknown origin) using poly (Glu,Tyr) 4:1 as substrate after 60 mins by ELISA
[5] = target: Cyclin-dependent kinase 1 (Homo sapiens, UniProt P06493); test: Inhibition of CDK1 (unknown origin) by FRET assay
[6] = target: Epidermal growth factor receptor (Homo sapiens, UniProt P00533)
Description: Inhibition of recombinant EGFR (unknown origin) using poly (Glu,Tyr) 4:1 as substrate after 60 mins by ELISA

[7] = target: Leukocyte tyrosine kinase receptor (Homo sapiens, UniProt P29376); test: Inhibition of recombinant LTK (unknown origin) using poly (Glu,Tyr) 4:1 as substrate after 60 mins by ELISA
Insulin receptor = Insulin receptor (Homo sapiens, UniProt P06213); test: Inhibition of recombinant IR (unknown origin) using poly (Glu,Tyr) 4:1 as substrate after 60 mins by ELISA
[8] = target: Cyclin-dependent kinase 6 (Homo sapiens, UniProt Q00534); test: Inhibition of CDK6 (unknown origin) by FRET assay
[9] = AUC (0 to t) in CD-1 mouse at 5 mg/kg, iv by LC-MS/MS method; format: ADME, organism-based; conditions: in vivo
[10] = Cmax in CD-1 mouse at 5 mg/kg, iv by LC-MS/MS method; format: ADME, organism-based; set-up: dose 5 mg/kg, route intravenous; conditions: in vivo
[11] = Tmax in CD-1 mouse at 5 mg/kg, iv by LC-MS/MS method; format: ADME, organism-based; conditions: in vivo
[12] = target: Vascular endothelial growth factor receptor 2 (Homo sapiens, UniProt P35968); test: Inhibition of recombinant KDR (unknown origin) using poly (Glu,Tyr) 4:1 as substrate after 60 mins by ELISA
[13] = Half life in Sprague-Dawley rat at 20 mg/kg, po by LC-MS/MS method; format: ADME, organism-based; conditions: in vivo
[14] = target: Fibroblast growth factor receptor 1 (Homo sapiens, UniProt P11362); test: Inhibition of recombinant human FGFR1 using poly (Glu,Tyr) 4:1 as substrate after 60 mins by ELISA
[15] = target: Mitogen-activated protein kinase 1 (Homo sapiens, UniProt P28482); test: Inhibition of Erk2 (unknown origin) by FRET assay
[16] = target: Tyrosine-protein kinase ABL1 (Homo sapiens, UniProt P00519)
Description: Inhibition of recombinant ABL (unknown origin) using poly (Glu,Tyr) 4:1 as substrate after 60 mins by ELISA

Chain of Fibroblast growth factor receptor 1 (P11362 whole entry): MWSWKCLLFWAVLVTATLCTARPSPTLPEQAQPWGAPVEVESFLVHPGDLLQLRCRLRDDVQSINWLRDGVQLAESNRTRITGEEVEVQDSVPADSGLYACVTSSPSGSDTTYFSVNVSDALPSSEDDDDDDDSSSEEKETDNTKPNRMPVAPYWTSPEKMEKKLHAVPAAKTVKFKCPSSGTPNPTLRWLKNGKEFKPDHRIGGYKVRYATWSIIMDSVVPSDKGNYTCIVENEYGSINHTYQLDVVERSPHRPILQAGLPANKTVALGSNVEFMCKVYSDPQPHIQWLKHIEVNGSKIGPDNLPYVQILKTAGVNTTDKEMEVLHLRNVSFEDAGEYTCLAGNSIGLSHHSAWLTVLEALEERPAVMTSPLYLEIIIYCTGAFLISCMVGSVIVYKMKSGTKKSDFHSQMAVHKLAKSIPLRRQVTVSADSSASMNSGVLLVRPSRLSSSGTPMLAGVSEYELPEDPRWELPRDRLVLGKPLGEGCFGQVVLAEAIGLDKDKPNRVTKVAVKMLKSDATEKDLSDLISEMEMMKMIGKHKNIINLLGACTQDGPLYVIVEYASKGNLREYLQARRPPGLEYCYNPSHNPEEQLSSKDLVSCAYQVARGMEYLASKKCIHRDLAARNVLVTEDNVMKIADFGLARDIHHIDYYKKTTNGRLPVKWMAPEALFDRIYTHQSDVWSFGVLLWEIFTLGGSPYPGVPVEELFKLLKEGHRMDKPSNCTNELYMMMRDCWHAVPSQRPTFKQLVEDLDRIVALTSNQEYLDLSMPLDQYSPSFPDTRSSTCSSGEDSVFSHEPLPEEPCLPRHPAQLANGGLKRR
Chain of Insulin receptor (P06213 28-758 limits assumed): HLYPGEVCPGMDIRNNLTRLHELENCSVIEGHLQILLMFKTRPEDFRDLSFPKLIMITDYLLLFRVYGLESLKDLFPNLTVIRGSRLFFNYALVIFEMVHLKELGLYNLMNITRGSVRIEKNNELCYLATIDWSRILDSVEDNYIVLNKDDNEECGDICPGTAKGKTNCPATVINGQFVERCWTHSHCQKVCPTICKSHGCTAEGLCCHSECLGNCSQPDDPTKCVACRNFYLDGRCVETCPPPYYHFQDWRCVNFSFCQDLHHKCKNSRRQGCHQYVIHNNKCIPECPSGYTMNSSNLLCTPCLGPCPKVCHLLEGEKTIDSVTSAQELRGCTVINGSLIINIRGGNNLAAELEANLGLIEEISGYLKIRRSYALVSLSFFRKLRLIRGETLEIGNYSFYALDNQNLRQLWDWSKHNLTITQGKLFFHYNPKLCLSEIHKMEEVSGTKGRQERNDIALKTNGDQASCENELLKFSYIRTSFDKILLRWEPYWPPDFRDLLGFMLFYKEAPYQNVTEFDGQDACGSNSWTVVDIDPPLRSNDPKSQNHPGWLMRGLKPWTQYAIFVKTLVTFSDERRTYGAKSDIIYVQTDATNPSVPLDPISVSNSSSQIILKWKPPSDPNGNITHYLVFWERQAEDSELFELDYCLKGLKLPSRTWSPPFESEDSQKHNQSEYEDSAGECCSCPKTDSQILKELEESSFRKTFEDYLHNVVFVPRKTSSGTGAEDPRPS
Chain of Insulin receptor (P06213 763-1382 limits assumed): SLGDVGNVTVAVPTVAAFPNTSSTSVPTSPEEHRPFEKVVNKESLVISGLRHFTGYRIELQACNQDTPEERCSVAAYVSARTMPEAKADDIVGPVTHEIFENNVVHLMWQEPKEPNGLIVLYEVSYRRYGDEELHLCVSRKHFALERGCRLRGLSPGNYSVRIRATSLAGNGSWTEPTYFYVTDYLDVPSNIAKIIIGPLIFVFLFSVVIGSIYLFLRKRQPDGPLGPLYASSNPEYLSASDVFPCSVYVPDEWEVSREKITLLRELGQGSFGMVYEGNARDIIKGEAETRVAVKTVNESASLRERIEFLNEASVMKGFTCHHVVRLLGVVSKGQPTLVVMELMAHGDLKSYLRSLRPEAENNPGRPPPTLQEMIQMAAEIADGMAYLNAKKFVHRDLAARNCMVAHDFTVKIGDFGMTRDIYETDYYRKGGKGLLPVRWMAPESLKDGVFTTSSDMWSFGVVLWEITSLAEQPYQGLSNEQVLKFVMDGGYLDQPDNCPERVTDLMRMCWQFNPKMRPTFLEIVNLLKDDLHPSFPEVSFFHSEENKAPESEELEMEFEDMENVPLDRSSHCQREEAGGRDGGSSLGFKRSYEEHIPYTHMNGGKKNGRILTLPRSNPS
Chain of Cyclin-dependent kinase 6 (Q00534 whole entry): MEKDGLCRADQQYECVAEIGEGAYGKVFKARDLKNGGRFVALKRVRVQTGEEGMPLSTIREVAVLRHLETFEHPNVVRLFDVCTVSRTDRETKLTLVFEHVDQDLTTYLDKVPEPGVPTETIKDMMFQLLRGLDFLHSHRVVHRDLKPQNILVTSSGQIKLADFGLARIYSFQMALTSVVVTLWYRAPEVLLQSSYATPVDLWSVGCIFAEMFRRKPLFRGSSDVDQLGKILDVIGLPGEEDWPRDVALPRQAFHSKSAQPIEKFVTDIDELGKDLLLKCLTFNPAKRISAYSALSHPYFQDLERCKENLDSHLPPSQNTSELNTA
Chain of Cyclin-dependent kinase 1 (P06493 whole entry): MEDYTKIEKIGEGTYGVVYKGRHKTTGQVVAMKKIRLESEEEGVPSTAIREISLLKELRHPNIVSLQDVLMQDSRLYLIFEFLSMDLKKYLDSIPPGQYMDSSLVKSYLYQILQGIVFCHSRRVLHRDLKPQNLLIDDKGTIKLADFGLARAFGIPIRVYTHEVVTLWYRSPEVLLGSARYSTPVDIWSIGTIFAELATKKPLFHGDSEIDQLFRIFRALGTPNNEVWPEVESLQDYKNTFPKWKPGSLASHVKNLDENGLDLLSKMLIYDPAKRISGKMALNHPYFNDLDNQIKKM
Chain of Receptor tyrosine-protein kinase erbB-2 (P04626 whole entry): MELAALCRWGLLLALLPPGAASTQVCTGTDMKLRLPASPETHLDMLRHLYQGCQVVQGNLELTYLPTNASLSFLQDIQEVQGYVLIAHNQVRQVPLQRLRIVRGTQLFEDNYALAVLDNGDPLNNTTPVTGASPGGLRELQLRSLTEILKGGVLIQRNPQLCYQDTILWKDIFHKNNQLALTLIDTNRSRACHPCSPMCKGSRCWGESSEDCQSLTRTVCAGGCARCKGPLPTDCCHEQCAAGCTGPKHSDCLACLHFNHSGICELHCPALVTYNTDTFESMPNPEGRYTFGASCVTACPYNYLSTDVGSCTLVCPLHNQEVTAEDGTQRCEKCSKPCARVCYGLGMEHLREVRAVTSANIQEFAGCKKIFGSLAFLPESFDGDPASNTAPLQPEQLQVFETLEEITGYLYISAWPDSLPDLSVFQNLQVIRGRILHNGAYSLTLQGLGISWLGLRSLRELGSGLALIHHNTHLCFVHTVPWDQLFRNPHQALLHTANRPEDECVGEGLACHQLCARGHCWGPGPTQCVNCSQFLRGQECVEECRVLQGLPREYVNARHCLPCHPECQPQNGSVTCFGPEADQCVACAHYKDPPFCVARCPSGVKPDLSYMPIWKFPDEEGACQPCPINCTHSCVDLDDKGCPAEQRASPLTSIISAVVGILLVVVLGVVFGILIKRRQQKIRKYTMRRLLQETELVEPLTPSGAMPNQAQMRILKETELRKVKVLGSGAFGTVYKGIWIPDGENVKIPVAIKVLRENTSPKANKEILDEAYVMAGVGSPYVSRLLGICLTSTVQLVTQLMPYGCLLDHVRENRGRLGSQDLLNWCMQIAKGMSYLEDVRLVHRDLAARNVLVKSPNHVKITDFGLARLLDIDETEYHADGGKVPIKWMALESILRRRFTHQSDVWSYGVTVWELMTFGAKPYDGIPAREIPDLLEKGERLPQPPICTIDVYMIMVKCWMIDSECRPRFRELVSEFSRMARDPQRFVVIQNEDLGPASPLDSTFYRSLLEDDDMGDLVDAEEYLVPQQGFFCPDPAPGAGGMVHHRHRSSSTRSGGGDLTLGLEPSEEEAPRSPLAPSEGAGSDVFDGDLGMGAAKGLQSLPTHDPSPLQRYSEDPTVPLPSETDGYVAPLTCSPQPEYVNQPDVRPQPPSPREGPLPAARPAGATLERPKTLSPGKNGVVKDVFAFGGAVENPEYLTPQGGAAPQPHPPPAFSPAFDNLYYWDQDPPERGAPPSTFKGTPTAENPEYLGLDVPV
Chain of Mitogen-activated protein kinase 1 (P28482 whole entry): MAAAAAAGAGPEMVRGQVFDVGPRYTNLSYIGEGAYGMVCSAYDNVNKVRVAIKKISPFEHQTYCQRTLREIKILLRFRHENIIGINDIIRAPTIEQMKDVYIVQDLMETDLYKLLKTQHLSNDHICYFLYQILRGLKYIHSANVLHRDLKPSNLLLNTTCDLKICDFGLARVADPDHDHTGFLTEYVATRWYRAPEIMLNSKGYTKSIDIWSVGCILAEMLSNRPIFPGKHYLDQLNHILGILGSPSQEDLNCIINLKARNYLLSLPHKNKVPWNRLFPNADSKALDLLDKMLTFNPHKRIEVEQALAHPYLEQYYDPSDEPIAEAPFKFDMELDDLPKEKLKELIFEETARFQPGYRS

IC50 [1]	IC50 [2]	IC50 [3]	IC50 [4]	IC50 [5]	IC50 [6]	IC50 [7]	IC50 (Insulin receptor)	IC50 [8]	AUC(0-t) [9]	Cmax [10]	Tmax [11]	IC50 [12]	half-life [13]	IC50 [14]	IC50 [15]	IC50 [16]	SMILES
36.9 nM	> 1000 nM	6 nM	> 10 nM	> 1000 nM	4.7 nM	123 nM	417 nM	> 1000 nM	289 ng·h/mL	106 ng/mL	1.5 h	1.7 nM	8 h	18 nM	575 nM	2.9 nM	Cc1n[nH]c2ccc(-c3cc(N[C@@H](CO)c4ccccc4)cnc3-c3cc(F)ccc3O)cc12
4.4 nM	> 1000 nM	1.9 nM	1 to 10 nM	> 1000 nM	4.2 nM	45.3 nM	431 nM	> 1000 nM				0.8 nM		16.1 nM	196 nM	4.3 nM	OC[C@H](Nc1cnc(-c2cc(Cl)ccc2O)c(-c2ccc3cnccc3c2)c1)c1ccccc1
7.1 nM	> 1000 nM	1.3 nM	1 to 10 nM	> 1000 nM	8.1 nM	68.5 nM	888 nM	> 1000 nM				2.6 nM		25.2 nM	> 1000 nM	6.1 nM	Cc1n[nH]c2ccc(-c3cc(N[C@@H](CO)c4ccccc4)cnc3-c3ccc(F)cc3O)cc12
30.9 nM	> 1000 nM	8.6 nM	1 to 10 nM	> 1000 nM	3.1 nM	300 nM	91.6 nM	> 1000 nM				3.7 nM		55.8 nM	960 nM	6.6 nM	Cc1n[nH]c2ccc(-c3cc(N[C@@H](CO)c4ccccc4)cnc3-c3cc(Cl)ccc3O)cc12

From ChEMBL document CHEMBL4017490, “Design, Synthesis, and Pharmacological Evaluation of Novel Multisubstituted Pyridin-3-amine Derivatives as Multitargeted Protein Kinase Inhibitors for the Treatment of Non-Small Cell Lung Cancer” (J Med Chem, 2017)
